# Data from patent US20260022143A1, “Cyclic Peptide Inhibitors of IL-23” (JANSSEN PHARMACEUTICA NV, priority 2022, published 2026).
# Counter-ions that a name gives are not always drawn. Starred links: 1 amine or outer side, 2 acyl side, 3 side chain; linkers in the order of their positions; H or OH if unused. Positions of bridges follow the written chain, without caps; N, C: chain ends. Non-standard residues stand in square brackets, D forms with d. Residues, ends and D or L forms follow the SMILES beside them. *: point of attachment. X16 = C[N+](C)(C)Cc1cn(-c2ccc(C[C@H](N[*:1])C(=O)[*:2])cc2)nn1; Me3N+(CH2)2O(CH2)2O(CH2)2CO = C[N+](C)(C)CCOCCOCCC(=O)*; Trp(7-CF3) = N[C@@H](Cc1c[nH]c2c(C(F)(F)F)cccc12)C(=O)O; X34 = C[N+](C)(C)CCOCCOCCC(=O)N(CC[N+](C)(C)C)CC*; CH2CH2OCH2CH2OCH2CH2NMe3+ = C[N+](C)(C)CCOCCOCC*; Trp(7-Me) = Cc1cccc2c(C[C@H](N)C(=O)O)c[nH]c12; Hexanoyl(6-NMe3+) = C[N+](C)(C)CCCCCC(=O)*; X30 = C[N+](C)(C)CCOCCOCCOCCOCc1cn(CC*)nn1; X9 = COCCOCCOCC[N+](C)(C)CCc1cn(CC*)nn1; 2Nal = N[C@@H](Cc1ccc2ccccc2c1)C(=O)O; AEF = NCCOc1ccc(C[C@H](N)C(=O)O)cc1; dNMeY = CN[C@H](Cc1ccc(O)cc1)C(=O)O; 3Pal = N[C@@H](Cc1cccnc1)C(=O)O; Lys(Me) = CNCCCC[C@H](N)C(=O)O; Pen = CC(C)(S)[C@H](N)C(=O)O; αMeK = C[C@](N)(CCCCN)C(=O)O; Thp = NC1(C(=O)O)CCOCC1; X92 = COCC[N+](C)(C)CC*; X3 = C[N+](C)(C)CCCCC*; Tfa = O=C(C(F)(F)F)*; Sar = CNCC(=O)O
# Test: Exposed Polar Surface Area (EPSA)
# Format: physicochemical
# Details: SFC on Chirex 3014 column; sample 1 mM DMSO stock; read-out: EPSA
# In short: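 Polarity descriptor in Å² derived from retention time using 8 calibration standards re-run every 20 compounds. Duplicate injections of 1 mM DMSO stock; linear 5–60% modifier gradient (20 mM ammonium formate in MeOH) with CO2 at 4 mL/min, 35 °C, on a Chirex 3014 column.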
row,EPSA [A^2],SMILES
1,144,"CC(=O)N(C)CCCC[C@@H]1NC(=O)[C@H](Cc2c[nH]c3c(C)cccc23)NC(=O)[C@H]([C@@H](C)O)NC(=O)[C@H](CCCCNC(=O)CCOCCOCC[N+](C)(C)C)NC(=O)[C@@H](NC(=O)CCOCCOCC[N+](C)(C)C)C(C)(C)SSC(C)(C)[C@@H](C(=O)N[C@@H](Cc2ccc(OCCCCC[N+](C)(C)C)cc2)C(=O)N[C@@H](Cc2ccc3ccccc3c2)C(=O)NC2(C(=O)N[C@@H](CCCCN(C)C(C)=O)C(=O)N[C@@H](CC(N)=O)C(=O)N[C@@H](Cc3cccnc3)C(=O)N(C)CC(=O)N(C)C)CCOCC2)NC1=O [compound 393, cPEG3aCO-Pen(3)-K(cPEG3a)-T-7MeW-K(NMeAc)-Pen(3)-TMAPF-2Nal-THP-K(NMeAc)-N-3Pya-Sar-CON(Me)2] ({Me3N+(CH2)2O(CH2)2O(CH2)2CO}-[Pen]K(Me3N+(CH2)2O(CH2)2O(CH2)2CO)T[Trp(7-Me)][Lys(Me)](Ac)[Pen]Y(X3)[2Nal][Thp][Lys(Me)](Ac)N[3Pal][Sar]-NMe2; disulfide 1-6)"
2,146,"COCCOCCOCC[N+](C)(C)CCc1cn(CCOc2ccc(C[C@H](NC(=O)[C@H]3NC(=O)[C@H](CCCCN(C)C(C)=O)NC(=O)[C@H](Cc4c[nH]c5c(C)cccc45)NC(=O)[C@H]([C@@H](C)O)NC(=O)[C@H](CC(=O)N(C)C)NC(=O)[C@@H](NC(=O)CCOCCOCC[N+](C)(C)C)C(C)(C)SSC3(C)C)C(=O)N[C@@H](Cc3ccc4ccccc4c3)C(=O)NC3(C(=O)N[C@@H](CCCCN(C)C(C)=O)C(=O)N[C@@H](CC(N)=O)C(=O)N[C@@H](Cc4cccnc4)C(=O)N(C)CC(=O)N(C)C)CCOCC3)cc2)nn1 [compound 283, cPEG3aCO-Pen(3)-N(N(Me)2)-T-7MeW-K(NMeAc)-Pen(3)-Y(OTzlChmPEG3)-2Nal-THP-K(NMeAc)-N-3Pya-Sar-CON(Me)2] ({Me3N+(CH2)2O(CH2)2O(CH2)2CO}-[Pen]D(NMe2)T[Trp(7-Me)][Lys(Me)](Ac)[Pen]Y(X9)[2Nal][Thp][Lys(Me)](Ac)N[3Pal][Sar]-NMe2; disulfide 1-6)"
3,138,"CC(=O)N[C@@H]1C(=O)N[C@@H](CC(=O)N(C)C)C(=O)N[C@@H]([C@@H](C)O)C(=O)N[C@@H](Cc2c[nH]c3c(C)cccc23)C(=O)N[C@@H](CCCCN(C)C(=O)CCOCCOCC[N+](C)(C)C)C(=O)N[C@H](C(=O)N[C@@H](Cc2ccc(OCCOCCOCC[N+](C)(C)C)cc2)C(=O)N[C@@H](Cc2ccc3ccccc3c2)C(=O)NC2(C(=O)N[C@@H](CCCCN(C)C(C)=O)C(=O)N[C@@H](CC(N)=O)C(=O)N[C@@H](Cc3cccnc3)C(=O)N(C)CC(=O)N(C)C)CCOCC2)C(C)(C)SSC1(C)C [compound 217, MeCO-Pen(3)-N(N(Me)2)-T-7MeW-K(NMePEG3a)-Pen(3)-APEG3F-2Nal-THP-K(NMeAc)-N-3Pya-Sar-CON(Me)2] (Ac-[Pen]D(NMe2)T[Trp(7-Me)][Lys(Me)](Me3N+(CH2)2O(CH2)2O(CH2)2CO)[Pen]Y(CH2CH2OCH2CH2OCH2CH2NMe3+)[2Nal][Thp][Lys(Me)](Ac)N[3Pal][Sar]-NMe2; disulfide 1-6)"
4,141,"CC(=O)N(C)CCCC[C@@H]1NC(=O)[C@H](Cc2c[nH]c3c(C)cccc23)NC(=O)[C@H]([C@@H](C)O)NC(=O)[C@H](CC(=O)N(C)C)NC(=O)[C@@H](NC(=O)CCOCCOCC[N+](C)(C)C)C(C)(C)SSC(C)(C)[C@@H](C(=O)N[C@@H](Cc2ccc(OCCN(CC[N+](C)(C)C)C(=O)CCOCCOCC[N+](C)(C)C)cc2)C(=O)N[C@@H](Cc2ccc3ccccc3c2)C(=O)NC2(C(=O)N[C@@H](CCCCN(C)C(C)=O)C(=O)N[C@@H](CC(N)=O)C(=O)N[C@@H](Cc3cccnc3)C(=O)N(C)CC(=O)N(C)C)CCOCC2)NC1=O [compound 208, cPEG3aCO-Pen(3)-N(N(Me)2)-T-7MeW-K(NMeAc)-Pen(3)-AEF((Ch)cPEG3a)-2Nal-THP-K(NMeAc)-N-3Pya-Sar-CON(Me)2] ({Me3N+(CH2)2O(CH2)2O(CH2)2CO}-[Pen]D(NMe2)T[Trp(7-Me)][Lys(Me)](Ac)[Pen]Y(X34)[2Nal][Thp][Lys(Me)](Ac)N[3Pal][Sar]-NMe2; disulfide 1-6)"
5,139,"COCC[N+](C)(C)CCOc1ccc(C[C@H](NC(=O)[C@H]2NC(=O)[C@H](CCCCN(C)C(C)=O)NC(=O)[C@H](Cc3c[nH]c4c(C)cccc34)NC(=O)[C@H]([C@@H](C)O)NC(=O)[C@H](CC(=O)N(C)C)NC(=O)[C@@H](NC(=O)CCOCCOCC[N+](C)(C)C)C(C)(C)SSC2(C)C)C(=O)N[C@@H](Cc2ccc3ccccc3c2)C(=O)NC2(C(=O)N[C@@H](CCCCN(C)C(C)=O)C(=O)N[C@@H](CC(N)=O)C(=O)N[C@@H](Cc3cccnc3)C(=O)N(C)CC(=O)N(C)C)CCOCC2)cc1 [compound 228, cPEG3aCO-Pen(3)-N(N(Me)2)-T-7MeW-K(NMeAc)-Pen(3)-mPEG2TMA2F-2Nal-THP-K(NMeAc)-N-3Pya-Sar-CON(Me)2] ({Me3N+(CH2)2O(CH2)2O(CH2)2CO}-[Pen]D(NMe2)T[Trp(7-Me)][Lys(Me)](Ac)[Pen]Y(X92)[2Nal][Thp][Lys(Me)](Ac)N[3Pal][Sar]-NMe2; disulfide 1-6)"

# Continued, compound first:
row,SMILES,EPSA [A^2]
1,"CC(=O)NCCCC[C@@H]1NC(=O)[C@H](Cc2c[nH]c3c(C)cccc23)NC(=O)[C@H]([C@@H](C)O)NC(=O)[C@H](CC(N)=O)NC(=O)[C@@H](NC(C)=O)C(C)(C)SSC(C)(C)[C@@H](C(=O)N[C@@H](Cc2ccc(OCCN)cc2)C(=O)N[C@@H](Cc2ccc3ccccc3c2)C(=O)N[C@@](C)(CCCCN)C(=O)N[C@@H](CCCCNC(C)=O)C(=O)N[C@@H](CC(N)=O)C(=O)N[C@@H](Cc2c[nH]cn2)C(=O)N(C)[C@H](Cc2ccc(O)cc2)C(N)=O)NC1=O [compound 8, MeCO-Pen(3)-N-T-7MeW-K(Ac)-Pen(3)-AEF-2Nal-aMeK-K(Ac)-N-H-NMeDTyr-CONH2] (Ac-[Pen]NT[Trp(7-Me)]K(Ac)[Pen][AEF][2Nal][αMeK]K(Ac)NH[dNMeY]-NH2; disulfide 1-6 (inferred))",169
2,CC(=O)NCCCC[C@@H]1NC(=O)[C@H](Cc2c[nH]c3c(C)cccc23)NC(=O)[C@H]([C@@H](C)O)NC(=O)[C@H](CC(N)=O)NC(=O)[C@@H](NC(C)=O)C(C)(C)SSC(C)(C)[C@@H](C(=O)N[C@@H](Cc2ccc(OCCn3cc(COCCOCCOCCOCC[N+](C)(C)C)nn3)cc2)C(=O)N[C@@H](Cc2ccc3ccccc3c2)C(=O)NC2(C(=O)N[C@@H](CCCCNC(C)=O)C(=O)N[C@@H](CC(N)=O)C(=O)N[C@@H](Cc3cccnc3)C(=O)N(C)CC(N)=O)CCOCC2)NC1=O [compound 252] (Ac-[Pen]NT[Trp(7-Me)]K(Ac)[Pen]Y(X30)[2Nal][Thp]K(Ac)N[3Pal][Sar]-NH2; disulfide 1-6),148
3,CC(=O)NCCCC[C@@H]1NC(=O)[C@H](Cc2c[nH]c3c(C)cccc23)NC(=O)[C@H]([C@@H](C)O)NC(=O)[C@H](CC(N)=O)NC(=O)[C@@H](NC(=O)CCCCC[N+](C)(C)C)C(C)(C)SSC(C)(C)[C@@H](C(=O)N[C@@H](Cc2ccc(OCCN)cc2)C(=O)N[C@@H](Cc2ccc3ccccc3c2)C(=O)NC2(C(=O)N[C@@H](CCC(=O)O)C(=O)N[C@@H](CC(N)=O)C(=O)N[C@@H](Cc3cccnc3)C(=O)N(C)CC(N)=O)CCOCC2)NC1=O [compound 81] ({Hexanoyl(6-NMe3+)}-[Pen]NT[Trp(7-Me)]K(Ac)[Pen][AEF][2Nal][Thp]EN[3Pal][Sar]-NH2; disulfide 1-6 (inferred)),173
4,"CC(=O)NCCCC[C@@H]1NC(=O)[C@H](Cc2c[nH]c3c(C)cccc23)NC(=O)[C@H]([C@@H](C)O)NC(=O)[C@H](CC(N)=O)NC(=O)[C@@H](NC(C)=O)C(C)(C)SSC(C)(C)[C@@H](C(=O)N[C@@H](Cc2ccc(OCCN)cc2)C(=O)N[C@@H](Cc2ccc3ccccc3c2)C(=O)N[C@@](C)(CCCCN)C(=O)N[C@@H](CCCCNC(C)=O)C(=O)N[C@@H](CC(N)=O)C(=O)N[C@@H](C(=O)N(C)[C@H](Cc2ccc(O)cc2)C(N)=O)C(C)C)NC1=O [compound 14, MeCO-Pen(3)-N-T-7MeW-K(Ac)-Pen(3)-AEF-2Nal-aMeK-K(Ac)-N-v-NMeDTyr-CONH2] (Ac-[Pen]NT[Trp(7-Me)]K(Ac)[Pen][AEF][2Nal][αMeK]K(Ac)N[dV][dNMeY]-NH2; disulfide 1-6)",166
5,CC(=O)NCCCC[C@@H]1NC(=O)[C@H](Cc2c[nH]c3c(C)cccc23)NC(=O)[C@H]([C@@H](C)O)NC(=O)[C@H](CC(N)=O)NC(=O)[C@@H](NC(=O)C(F)(F)F)C(C)(C)SSC(C)(C)[C@@H](C(=O)N[C@@H](Cc2ccc(OCCN)cc2)C(=O)N[C@@H](Cc2ccc3ccccc3c2)C(=O)NC2(C(=O)N[C@@H](CCCCNC(C)=O)C(=O)N[C@@H](CC(N)=O)C(=O)N[C@@H](Cc3cccnc3)C(=O)N(C)CC(N)=O)CCOCC2)NC1=O [compound 49] (Tfa-[Pen]NT[Trp(7-Me)]K(Ac)[Pen][AEF][2Nal][Thp]K(Ac)N[3Pal][Sar]-NH2; disulfide 1-6),164
6,CC(=O)NCCCC[C@@H]1NC(=O)[C@H](Cc2c[nH]c3c(C)cccc23)NC(=O)[C@H]([C@@H](C)O)NC(=O)[C@H](CC(N)=O)NC(=O)[C@@H](NC(C)=O)C(C)(C)SSC(C)(C)[C@@H](C(=O)N[C@@H](Cc2ccc(-n3cc(C[N+](C)(C)C)nn3)cc2)C(=O)N[C@@H](Cc2ccc3ccccc3c2)C(=O)NC2(C(=O)N[C@@H](CCC(=O)O)C(=O)N[C@@H](CC(N)=O)C(=O)N[C@@H](Cc3cccnc3)C(=O)N(C)CC(N)=O)CCOCC2)NC1=O [compound 441] (Ac-[Pen]NT[Trp(7-Me)]K(Ac)[Pen][X16][2Nal][Thp]EN[3Pal][Sar]-NH2; disulfide 1-6 (inferred)),176
7,"CC(=O)N(C)CCCC[C@@H]1NC(=O)[C@H](Cc2c[nH]c3c(C(F)(F)F)cccc23)NC(=O)[C@H]([C@@H](C)O)NC(=O)[C@H](CC(=O)N(C)C)NC(=O)[C@@H](NC(=O)C(F)(F)F)C(C)(C)SSC(C)(C)[C@@H](C(=O)N[C@@H](Cc2ccc(OCCN)cc2)C(=O)N[C@@H](Cc2ccc3ccccc3c2)C(=O)NC2(C(=O)N[C@@H](CCCCN(C)C(C)=O)C(=O)N[C@@H](CC(N)=O)C(=O)N[C@@H](Cc3cccnc3)C(=O)N(C)CC(=O)N(C)C)CCOCC2)NC1=O [compound 94, CF3CO-Pen(3)-N(N(Me)2)-T-7CF3W-K(NMeAc)-Pen(3)-AEF-2Nal-THP-K(NMeAc)-N-3Pya-Sar-CON(Me)2] (Tfa-[Pen]D(NMe2)T[Trp(7-CF3)][Lys(Me)](Ac)[Pen][AEF][2Nal][Thp][Lys(Me)](Ac)N[3Pal][Sar]-NMe2; disulfide 1-6)",142
